Results as given in patent US20090074680A1, “STATHERIN PEPTIDE AND USE IN MEDICINE” (QUEEN MARY & WESTFIELD COLLEGE, priority 2005, published 2009).
Where no end group is shown, it is not given here. [ ]: non-standard residue; d: D form. pS = N[C@@H](COP(=O)(O)O)C(=O)O

What was measured:
[1] = lysozyme bound to HAp surface; cited from earlier work
[2] = Scanning microradiography (SMR) of demineralisation of HAp blocks coated for 24 h with peptide; settings: for RDHAp of coated HAp compared to uncoated control: 24 h coating, StN21 0.75 to 3.76×10^−4 mol l^−1, lysozyme 0.11×10^−4 mol l^−1, pH 4.5; for rate of demineralisation of HAp (RDHAp): 0.1 mol l^−1 acetic acid pH 4.5, 3 weeks
From the text: HAp pellets are used in many studies instead of enamel blocks to prevent effect of enamel organic impurities and its natural surface on rate of demineralisation (Anderson et al., 2004). Statherin could not be isolated in a sufficiently pure form from saliva. Therefore N-terminal 21 residue fragment of statherin (StN21) was chemically synthesised using standard FastMoc synthesis (Fields et al., 1990). Also SXE motif, responsible for calcium binding in caseins, is present in this 21 amino-acid fragment of statherin. To exclude the possibility that StN21 act solely as a semi-permeable membrane, lysozyme was used as a negative control.
Hydroxyapatite (HAp) pellets of 20 wt % porosity (Plasma Biotal Ltd, UK) were sliced into 3×3 mm blocks with 2 mm thickness using Microslice 2 cutter (Malvern Instruments Ltd.). Entire surface of the block, except one side was coated with acid resistant nail varnish. Ten HAp blocks were put into a solution saturated with respect to HAp for 24 hours to equilibrate. After equilibration, four HAp blocks were exposed for 24 h to 0.5 ml of four different concentrations of StN21 peptide dissolved in modified buffer (100 mmol^−1 NaCl, 40 mmol^−1 KCl, 4.3 mmol^−1 Na2HPO4, and 1.4 mmol^−1 KH2PO4, pH 7.4). The concentrations of StN21 peptide were 0.75, 1.13, 1.88 and 3.76×10^−4 mol l^−1. As a negative control one HAp pellet was put into 0.5 ml of solution containing lysozyme at concentration of 0.11×10^−4 mol l^−1.
Scanning microradiography (SMR) is a technique for observing very subtle changes in mineral mass during re and demineralisation of enamel and HAp. It allows observation period of up to 1000 h without disruptions to the specimen. Also, conditions can be modified and the effect of applied modifications on the samples can be monitored. SMR (Anderson et al., 2004) is an X-ray photon counting technique where the intensity of 15 μm X ray beam is attenuated by passing through the specimen and the transmitted photons are counted by an X-ray detector.
HAp blocks were placed in the wells of SMR cells (FIG. 2). Each SMR cell contained one HAp block coated with protein and one as a control. As an additional control, in one SMR cell two uncoated HAp blocks were placed in one SMR cell. The reservoir of the SMR cell is approximately 1.2 ml and solution is circulating past the HAp blocks at 0.4 ml min^−1.
Demineralising solution was 0.1 mol l^−1 acetic acid, buffered to pH 4.5 with 1 mol l^−1 NaOH; 1 mmol l^−1 calcium and 0.6 mmol l^−1 phosphate ions.
SMR was used to monitor changes in mineral mass at 12 positions 10 μm apart, along 2 lines in each well. Scanning time was 30 s per position. Total period of observation was 3 weeks. The rate of mineral change at each position was calculated by linear least squares fitting.

[3] = SMR of demineralisation of HAp blocks after 3 min immersion(s) in STN21 solution; settings: STN21 1.88×10^−4 mol l^−1, pH 4.5
Description: STN21 was synthesised using Fmoc solid state synthesis. Hydroxyapatite (HAp) pellets were cut into 5×5×2 mm blocks and covered with acid-resistant varnish leaving one surface exposed and immersed in STN21 solution (1.88×10^−4 mol l^−1) for 3 min. The pellets were then located in scanning microradiography (SMR) cells. Demineralising solution (0.1 mol l^−1 acetic acid, pH 4.5) was circulated (0.4 ml min^−1) for 3 weeks.
Five samples were exposed to further twice daily 3 min. immersions in STN21 solution. Changes in mineral mass were measured using SMR for 28 days.

Substance | influence on rate of demineralisation of HAp [1] | RDHAp of coated HAp compared to uncoated control [2] | effect on RDHAp at lowest concentration ([2]; 9.4×10^−6 molar, equivalent to 25 mg/litre) | rate of demineralisation of HAp (RDHAp) ([2]; StN21 coating concentration 0.75×10^−4 mol l^−1, 24 h exposure) | rate of demineralisation of HAp (RDHAp) ([2]; StN21 coating concentration 1.13×10^−4 mol l^−1, 24 h exposure) | rate of demineralisation of HAp (RDHAp) ([2]; StN21 coating concentration 1.88×10^−4 mol l^−1, 24 h exposure) | rate of demineralisation of HAp (RDHAp) ([2]; StN21 coating concentration 3.76×10^−4 mol l^−1, 24 h exposure) | decrease in rate of mineral loss compared to a non-coated control ([3]; one 3 min period only) [%] | decrease in demineralisation rate ([3]; repeated twice daily 3 min immersions) [%]
lysozyme [reference compound] | does not influence rate of demineralisation of HAp | very similar results to uncoated (control) blocks | – | – | – | – | – | – | –
DpSpSEEKFLRRIGRFGYGYGPY (D[pS][pS]EEKFLRRIGRFGYGYGPY; UniProt P02808 20-40, looked up, fragment) [StN21, N-terminal fragment of statherin which consists of 21 amino acids; pS = phosphorylated serine] | – | significantly lower | effective | 2.2 ×10^−5 g cm^−2 h^−1 | 1.9 ×10^−5 g cm^−2 h^−1 | 1.7 ×10^−5 g cm^−2 h^−1 | 1.8 ×10^−5 g cm^−2 h^−1 | 17 | 45
